# Data reported in PMC3964607 (Nuclear medicine and biology, 2013).
# Legend:
# [1] = rats; cited from earlier work
# [2] = Sprague-Dawley rats; cited from earlier work
# [3] = Biodistribution in normal rats; format: in vivo, rats (Sprague–Dawley); details: mean ± SD; for Percent injected dose in blood: i.v. tail vein
# [4] = Biodistribution in rats with renal pedicle ligation; format: in vivo, rats (Sprague–Dawley)
# [5] = rats with renal pedicle ligation, 60 min post-injection, mean ± SD, n=5
compound,measurement,setting,value
"N#Cc1cc(C(=O)NCC(=O)O)ccc1[18F] [^18F-CNPFH, ^18F-m-cyano-p-fluorohippurate]",Route of elimination,[1],eliminated by both renal and hepatobiliary pathways
"O=C(O)CNC(=O)c1ccc([18F])cc1 [^18F-PFH, ^18F-p-fluorohippurate]",Route of elimination,[1],rapidly and exclusively cleared by the kidneys
^125I-iothamalate,Clearance as percentage of the clearance of ^131I-OIH,[2],40%
"O=C(O)CNC(=O)c1ccccc1[131I] [^131I-OIH, ^131I-o-iodohippurate]",Percent injected dose in blood,"[3]; 10 min post-injection, n=7",5.1 ± 0.5 % ID
same,Percent injected dose in bowel (intestines and stomach),"[3]; 10 min post-injection, n=7",1.7 ± 0.5 % ID
same,Percent injected dose in kidney,"[3]; 10 min post-injection, n=7",5.3 ± 1.2 % ID
same,Percent injected dose in liver,"[3]; 10 min post-injection, n=7",3.3 ± 0.2 % ID
same,Percent injected dose in urine,"[3]; 10 min post-injection, n=7",50.8 ± 5.2 % ID
same,Percent injected dose in blood,"[3]; 60 min post-injection, n=5",0.8 ± 0.1 % ID
same,Percent injected dose in bowel (intestines and stomach),"[3]; 60 min post-injection, n=5",1.8 ± 0.3 % ID
same,Percent injected dose in kidney,"[3]; 60 min post-injection, n=5",0.7 ± 0.4 % ID
same,Percent injected dose in liver,"[3]; 60 min post-injection, n=5",0.6 ± 0.2 % ID
same,Percent injected dose in urine,"[3]; 60 min post-injection, n=5",85.4 ± 3.1 % ID
same,"Percent injected dose remaining in the spleen, heart and lung","[4]; rats with ligated renal pedicles, 60 min",less than 1%
same,Percent injected dose in blood,[4]; [5],15.1 ± 0.9 % ID
same,Percent injected dose in bowel (intestines and stomach),[4]; [5],7.6 ± 1.1 % ID
same,Percent injected dose in kidney,[4]; [5],0.5 ± 0.2 % ID
same,Percent injected dose in liver,[4]; [5],7.1 ± 0.6 % ID
